Each compound was assayed against T1, recombinant HSF1 DNA-binding domain (DBD) (Homo sapiens, UniProt Q00613) (assay: Differential Scanning Fluorimetry (DSF), HSF1 DBD melting temperature). Details: Table 1; 5 μM HSF1 DBD, 25PM Compound; positive = stabilizes, negative = destabilizes HSF1.
T1 sequence (Q00613 15-120): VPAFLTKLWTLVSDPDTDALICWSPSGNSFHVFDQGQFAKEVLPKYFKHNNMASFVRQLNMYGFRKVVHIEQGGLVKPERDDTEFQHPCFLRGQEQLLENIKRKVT

Row | ΔTm at 25 µM [°C] | Compound
1 | 2.92 | O=C(Nc1ccc(Cl)c([N+](=O)[O-])c1)Nc1ccc(F)c(C2(C(F)(F)F)N=N2)c1 [Compound 0094, 1-(4-chloro-3-nitro-phenyl)-3-[4-fluoro-3-[3-(trifluoromethyl)diazirin-3-yl]phenyl]urea]
2 | 0.67 | CC(=O)Nc1cc(NC(=O)Nc2ccc(F)cc2)ccc1Cl [Compound 0095, N-[2-chloro-5-[(4-fluorophenyl)carbamoylamino]phenyl]acetamide]
3 | 2.61 | O=C(Nc1ccc(F)cc1)Nc1ccc(Cl)cc1 [Compound 0096, 1-(4-chlorophenyl)-3-(4-fluorophenyl)urea]
4 | 3.43 | O=C(Nc1ccc(S(=O)(=O)N2CCCCC2)cc1)c1cccc(Cl)c1 [Compound 0097]
5 | 4.93 | O=C(COc1ccc(Cl)cc1Cl)N/N=C/c1c[nH]c2ccccc12 [Compound 0098]
6 | -6.74 | CCN1C(=O)/C(=C\c2cc([N+](=O)[O-])cc(Br)c2O)SC1=S [Compound 0099]
7 | -7.52 | Cc1c2oc3c(C)c(O)c(I)cc3c(-c3c(Cl)c(Cl)c(Cl)c(Cl)c3C(=O)O)c-2cc(I)c1=O [Compound 0100]
8 | 3.33 | O=C(Nc1ccc(F)c(F)c1)Nc1ccc(Cl)c(C(F)(F)F)c1 [Compound 0101, 1-(4-chloro-3-(trifluoromethyl)phenyl)-3-(3,4-difluorophenyl)urea]
9 | 4.7 | O=C(Nc1ccc(F)cc1)Nc1ccc(Cl)c(O)c1 [Compound 0103, 1-(4-chloro-3-hydroxyphenyl)-3-(4-fluorophenyl)urea]
10 | 3.27 | O=C(Nc1cc(Cl)ccc1O)c1ccccc1CSc1ccc(Cl)cc1 [Compound 0104]
11 | 3.2 | CC(C)(C)c1ccc(NC(=O)Nc2ccc(Cl)c([N+](=O)[O-])c2)cc1 [Compound 0105, 1-(4-(tert-butyl)phenyl)-3-(4-chloro-3-nitrophenyl)urea]
12 | 3.28 | O=C(Nc1cccc([N+](=O)[O-])c1)Nc1ccc(F)cc1C(=O)O [Compound 0106, 5-fluoro-2-(3-(3-nitrophenyl)ureido)benzoic acid]
13 | -4.4 | N#C/C(=C(/Oc1ccc(Cl)cc1Cl)C(F)(F)F)c1ccccc1 [Compound 0107]
14 | -9.02 | CC(C)c1ccc2c(c1)c(SC(C)(C)C)c(CC(C)(C)C(=O)O)n2Cc1ccc(Cl)cc1 [Compound 0109]
15 | 2.94 | Cc1ccc(NC(=O)Nc2cccc([N+](=O)[O-])c2)cc1 [Compound 0110, 1-(3-nitrophenyl)-3-(p-tolyl)urea]
16 | 2.08 | O=c1c(Nc2ccc(F)cc2)c(Nc2ccc(Cl)c(S(=O)(=O)C(F)(F)F)c2)c1=O [Compound 0112, 3-[4-chloro-3-(trifluoromethylsulfonyl)anilino]-4-(4-fluoroanilino)cyclobut-3-ene-1,2-dione]
17 | 2.28 | Cc1ccc(NC(=O)Nc2ccc(Cl)cc2)cc1 [Compound 0113, 1-(4-chlorophenyl)-3-(p-tolyl)urea]
18 | 0.49 | Cc1cc(/C=N/Nc2nc3ccccc3s2)cc(C)c1O [Compound 0114]
19 | -9.91 | Cc1ccc(CNC(=O)CSc2nnc(-c3ccccc3)n2-c2ccc(C)c(C)c2)cc1 [Compound 0115]

Row | Compound | ΔTm at 25 µM [°C]
20 | Cc1cc([N+](=O)[O-])cc([N+](=O)[O-])c1Sc1ncc2ccccn12 [Compound 0093] | -3.44
21 | O=[N+]([O-])c1cc(C(F)(F)F)cc([N+](=O)[O-])c1Oc1ccc(C2CCCCC2)cc1 [Compound 0102] | -6.23
22 | CCOC(=O)c1sc(Sc2ccc([N+](=O)[O-])cc2[N+](=O)[O-])nc1C [Compound 0108] | -4.19
23 | Cc1cc(Oc2c([N+](=O)[O-])cc(C(F)(F)F)cc2[N+](=O)[O-])c2c(Cl)ccc(C)c2n1 [Compound 0111] | -5.21
24 | CSc1ccc(Oc2c([N+](=O)[O-])cc(C(F)(F)F)cc2[N+](=O)[O-])cc1 [Compound 0116] | -5.56

Same assay, conditions: Table 3; 5 μM HSF1 DBD, 25PM Compound; positive = stabilizes, negative = destabilizes HSF1

Row | ΔTm at 25 µM [°C] | Compound
25 | 2.33 | O=c1c(Nc2ccc(F)c(F)c2)c(Nc2ccc(Cl)c(C(F)(F)F)c2)c1=O [Compound 092, 3-[4-chloro-3-(trifluoromethyl)anilino]-4-(3,4-difluoroanilino)cyclobut-3-ene-1,2-dione]
26 | 2.92 | O=C(Nc1ccc(Cl)c([N+](=O)[O-])c1)Nc1ccc(F)c(C2(C(F)(F)F)N=N2)c1 [Compound 094, 1-(4-chloro-3-nitro-phenyl)-3-[4-fluoro-3-[3-(trifluoromethyl)diazirin-3-yl]phenyl]urea]
27 | 0.67 | CC(=O)Nc1cc(NC(=O)Nc2ccc(F)cc2)ccc1Cl [Compound 095, N-[2-chloro-5-[(4-fluorophenyl)carbamoylamino]phenyl]acetamide]
28 | 2.61 | O=C(Nc1ccc(F)cc1)Nc1ccc(Cl)cc1 [Compound 096, 1-(4-chlorophenyl)-3-(4-fluorophenyl)urea]

The compounds below were run against T2, purified recombinant human HSF1 (HSF1 DNA binding domain) (Homo sapiens, UniProt Q00613) (assay: Melting temperature of HSF1 DBD with HSF1 degrader compounds (Sypro orange)). Details: 12.5 micromolar compound, 5 micromolar HSF1 DBD, compared to DMSO; read-out: ΔTm (° C.).
T2 sequence (Q00613 15-120): T1 sequence (Q00613 15-120)
Experimental: The melting temperature (ΔTm) for purified recombinant human HSF1 (HSF1 DNA binding domain) was determined in the presence of HSF1 degrader compounds shown in Table 5 and compared to the solvent DMSO. Sypro orange dye was added to the HSF1 DBD (5 micromolar final concentration) in buffer, mixed and distributed to wells in 384 well microtiter plates. HSF1 degrader compound (12.5 micromolar) or DMSO solvent was added to three replicate wells per compound concentration, mixed and plates loaded into a Quant Studio thermnocycler and run on a temperature gradient from 25° C. to 85° C. with increments of 0.5° C. steps. Melting curves were obtained and analyzed using the ThermnoFisher Shift Software 1.4 fitted with a Boltzmann equation to determine the change in melting temperature of the protein in the presence of DMSO as compared to compound. The difference in the melting temperature under these two conditions was assigned as the change in melting temperature of ΔTm.

Row | ΔTm at 12.5 µM [°C] | Compound
29 | 3.49 | N#Cc1cccc(NC(=O)Nc2ccc(Cl)c([N+](=O)[O-])c2)c1 [Compound 238, 1-(4-chloro-3-nitrophenyl)-3-(3-cyanophenyl)urea]
30 | 3.13 | N#Cc1ccc(NC(=O)Nc2ccc(Cl)c([N+](=O)[O-])c2)cc1 [Compound 239, 1-(4-chloro-3-nitrophenyl)-3-(4-cyanophenyl)urea]
31 | 1.25 | N#Cc1ccc(NC(=O)Nc2ccc3c(c2)S(=O)(=O)C=C3)cc1C1CC1 [Compound 259, 1-(4-cyano-3-cyclopropylphenyl)-3-(1,1-dioxidobenzo[b]thiophen-6-yl)urea]
32 | 0.5 | N#Cc1ccc(NC(=O)Nc2ccc3c(c2)S(=O)(=O)C=C3)cc1C1CCCC1 [Compound 260, 1-(4-cyano-3-cyclopentylphenyl)-3-(1,1-dioxidobenzo[b]thiophen-6-yl)urea]
33 | 2.47 | CCc1cc(NC(=O)Nc2ccc3c(c2)S(=O)(=O)C=C3)ccc1C#N [Compound 262, 1-(4-cyano-3-ethylphenyl)-3-(1,1-dioxidobenzo[b]thiophen-6-yl)urea]
34 | 1.25 | CC(C)c1cc(NC(=O)Nc2ccc3c(c2)S(=O)(=O)C=C3)ccc1C#N [Compound 263, 1-(4-cyano-3-isopropylphenyl)-3-(1,1-dioxidobenzo[b]thiophen-6-yl)urea]
35 | 0.86 | N#Cc1ccc(NC(=O)Nc2ccc3c(c2)C=CS3(=O)=O)s1 [Compound 272, 1-(5-cyanothiophen-2-yl)-3-(1,1-dioxidobenzo[b]thiophen-5-yl)urea]
36 | 1.15 | N#Cc1ccc(NC(=O)Nc2cccc([N+](=O)[O-])c2)cc1 [Compound 273, 1-(4-cyanophenyl)-3-(3-nitrophenyl)urea]
37 | 1.41 | N#Cc1ccc(NC(=O)Nc2cccc(C(F)(F)F)c2)cc1 [Compound 274, 1-(4-cyanophenyl)-3-(3-(trifluoromethyl)phenyl)urea]
38 | 1.31 | N#Cc1ccc(NC(=O)Nc2cccc(S(=O)(=O)C(F)(F)F)c2)cc1 [Compound 275, 1-(4-cyanophenyl)-3-(3-((trifluoromethyl)sulfonyl)phenyl)urea]
39 | 0.12 | CS(=O)(=O)Nc1cccc(NC(=O)Nc2ccc(C#N)cc2)c1 [Compound 276, N-(3-(3-(4-cyanophenyl)ureido)phenyl)methanesulfonamide]
40 | -0.95 | N#Cc1ccc(NC(=O)Nc2ccc3c(c2)C(=O)CCC3)cc1 [Compound 278, 1-(4-cyanophenyl)-3-(8-oxo-5,6,7,8-tetrahydronaphthalen-2-yl)urea]
41 | 0.01 | N#Cc1ccc(NC(=O)Nc2cccc(-c3nnn[nH]3)c2)cc1 [Compound 280, 1-(3-(1H-tetrazol-5-yl)phenyl)-3-(4-cyanophenyl)urea]
42 | -1.92 | CC(=O)N1CCc2ccc(NC(=O)Nc3ccc(C#N)cc3)cc21 [Compound 281, 1-(1-acetylindolin-6-yl)-3-(4-cyanophenyl)urea]
43 | -0.97 | N#Cc1ccc(NC(=O)Nc2ccc3c(c2)CCCS3(=O)=O)cc1 [Compound 282, 1-(4-cyanophenyl)-3-(1,1-dioxidothiochroman-6-yl)urea]

Same assay, conditions: read-out: ΔTm (° C.)

Row | Compound | ΔTm at 12.5 µM [°C]
44 | N#Cc1ccc(NC(=O)Nc2ccc(Cl)c([N+](=O)[O-])c2)cc1C(F)(F)F [Compound 240, 1-(4-chloro-3-nitrophenyl)-3-(4-cyano-3-(trifluoromethyl)phenyl)urea] | 3.01

The compounds below were run on C4-2 prostate cancer cells (assay: C4-2 cell proliferation, Cell Titre Glo). Details: Homo sapiens, 48-hour period, 9-point dilution series, read-out: Cell Viability IC50.
Assay type: cell-based
Experimental: Next, cell viability of C4-2 prostate cancer cells was determined. C4-2 prostate cancer cells were grown in RMPI-1640 (no L-glutamine, Gibco 21870076) supplemented with 10% fetal bovine […] (non-heat-inactivated, Cytiva Hyclone SH30071.03). […] A 9-point dilution series was used to assess the ability of each compound to inhibit the growth of C4-2 prostate cancer cells over a 48-hour period, as compared to negative control solvent, DMSO. Cell proliferation was measured by the Cell Titre Glo assay using 384 well microtiter plate reader to quantitate luminescence. The IC50 was determined from the values obtained.

Row | Compound | IC50 [nM]
45 | N#Cc1cccc(NC(=O)Nc2ccc(Cl)c([N+](=O)[O-])c2)c1 [Compound 238, 1-(4-chloro-3-nitrophenyl)-3-(3-cyanophenyl)urea] | 3100
46 | N#Cc1ccc(NC(=O)Nc2ccc(Cl)c([N+](=O)[O-])c2)cc1 [Compound 239, 1-(4-chloro-3-nitrophenyl)-3-(4-cyanophenyl)urea] | 2940
47 | N#Cc1ccc(NC(=O)Nc2ccc(Cl)c([N+](=O)[O-])c2)cc1C(F)(F)F [Compound 240, 1-(4-chloro-3-nitrophenyl)-3-(4-cyano-3-(trifluoromethyl)phenyl)urea] | 563
48 | CN(C)CCc1ccc(NC(=O)Nc2ccc(C#N)cc2)cc1S(=O)(=O)C(F)(F)F [Compound 287, 1-(4-cyanophenyl)-3-(4-(2-(dimethylamino)ethyl)-3-((trifluoromethyl)sulfonyl)phenyl)urea] | > 10000

— patent US20240317727A1 (Duke University, priority 2018, published 2024)
